{"source": "patent US11946059B2", "about": "“In vivo generation of water-soluble cannabinoids in plant cell suspension cultures” (Trait Biosciences Inc., priority 2017, dated 2024)", "test": "Cannabinoid stability in solution (time course incubation)", "type": "physicochemical", "details": "for Day 0 concentration in solution / Day 1 concentration in solution / Day 4 concentration in solution / Day 5 concentration in solution / Day 6 concentration in solution / Day 7 concentration in solution: room temperature, shielded from light", "procedure": "Rather, levels increased slightly in all treatments. The absence of any residual UGTs were cross-check and confirmed as the samples were purified by SPE, washed and eluted in 30% and 65%-100% ethanol, respectively.\nMaterials and Methods Example 19: Cannabinoid Stability in Solution.\nThe present inventors generated a stock solution of the CBD/CBDA+glycosides mixture in water which was further diluted 10× in all treatment solutions. A 10 mL starting volume was used for all treatments, and all treatments were prepared in triplicate. […] Each sample was incubated at room temperature. Samples were stored in 15 mL polypropylene centrifuge tubes. All samples were shielded from light—tubes were wrapped in aluminum foil. Each sample was prepared in triplicate in the following buffers: water only; pH=3; pH=4; pH=7; pH=8; water only+10 mM ascorbic acid; pH=3+10 mM ascorbic acid; pH=4+10 mM ascorbic acid; pH=7+10 mM ascorbic acid; and pH=8+10 mM ascorbic acid.", "key": {"[1]": {"details": "Water + AA (10 mM ascorbic acid)"}, "[2]": {"details": "pH = 3 + AA (10 mM ascorbic acid)"}, "[3]": {"details": "pH = 4 + AA (10 mM ascorbic acid)"}, "[4]": {"details": "pH = 7 + AA (10 mM ascorbic acid)"}, "[5]": {"details": "pH = 8 + AA (10 mM ascorbic acid)"}}, "data": [{"smiles": "C=C(C)C1CCC(C)=CC1c1c(O)cc(CCCCC)cc1OC1OC(COC(C)=O)C(O)C(O)C1O", "note": "(stereo not shown) [1X CBD O-Acetyl Gly]", "values": [{"measurement": "Day 0 concentration in solution", "setting": "[1]", "value": "102.24 ± 12.18", "unit": "µg/mL"}, {"measurement": "Day 0 concentration in solution", "setting": "Water", "value": "137.46 ± 35.49", "unit": "µg/mL"}, {"measurement": "Day 0 concentration in solution", "setting": "[2]", "value": "110.44 ± 13.31", "unit": "µg/mL"}, {"measurement": "Day 0 concentration in solution", "setting": "pH = 3", "value": "126.49 ± 43.90", "unit": "µg/mL"}, {"measurement": "Day 0 concentration in solution", "setting": "[3]", "value": "118.27 ± 1.16", "unit": "µg/mL"}, {"measurement": "Day 0 concentration in solution", "setting": "pH = 4", "value": "101.60 ± 31.49", "unit": "µg/mL"}, {"measurement": "Day 0 concentration in solution", "setting": "[4]", "value": "108.19 ± 19.12", "unit": "µg/mL"}, {"measurement": "Day 0 concentration in solution", "setting": "pH = 7", "value": "107.55 ± 20.03", "unit": "µg/mL"}, {"measurement": "Day 0 concentration in solution", "setting": "[5]", "value": "137.53 ± 6.71", "unit": "µg/mL"}, {"measurement": "Day 0 concentration in solution", "setting": "pH = 8", "value": "108.41 ± 12.42", "unit": "µg/mL"}, {"measurement": "Day 1 concentration in solution", "setting": "[1]", "value": "204.63 ± 24.09", "unit": "µg/mL"}, {"measurement": "Day 1 concentration in solution", "setting": "Water", "value": "136.86 ± 139.68", "unit": "µg/mL"}, {"measurement": "Day 1 concentration in solution", "setting": "[2]", "value": "223.32 ± 48.67", "unit": "µg/mL"}, {"measurement": "Day 1 concentration in solution", "setting": "pH = 3", "value": "216.46 ± 9.61", "unit": "µg/mL"}, {"measurement": "Day 1 concentration in solution", "setting": "[3]", "value": "198.56 ± 24.37", "unit": "µg/mL"}, {"measurement": "Day 1 concentration in solution", "setting": "pH = 4", "value": "150.94 ± 27.25", "unit": "µg/mL"}, {"measurement": "Day 1 concentration in solution", "setting": "[4]", "value": "185.02 ± 35.46", "unit": "µg/mL"}, {"measurement": "Day 1 concentration in solution", "setting": "pH = 7", "value": "250.75 ± 6.23", "unit": "µg/mL"}, {"measurement": "Day 1 concentration in solution", "setting": "[5]", "value": "180.83 ± 33.60", "unit": "µg/mL"}, {"measurement": "Day 1 concentration in solution", "setting": "pH = 8", "value": "221.10 ± 16.30", "unit": "µg/mL"}, {"measurement": "Day 4 concentration in solution", "setting": "[1]", "value": "153.06 ± 28.19", "unit": "µg/mL"}, {"measurement": "Day 4 concentration in solution", "setting": "Water", "value": "160.23 ± 23.75", "unit": "µg/mL"}, {"measurement": "Day 4 concentration in solution", "setting": "[2]", "value": "157.19 ± 1.58", "unit": "µg/mL"}, {"measurement": "Day 4 concentration in solution", "setting": "pH = 3", "value": "174.88 ± 14.16", "unit": "µg/mL"}, {"measurement": "Day 4 concentration in solution", "setting": "[3]", "value": "144.44 ± 18.85", "unit": "µg/mL"}, {"measurement": "Day 4 concentration in solution", "setting": "pH = 4", "value": "225.84 ± 39.59", "unit": "µg/mL"}, {"measurement": "Day 4 concentration in solution", "setting": "[4]", "value": "176.48 ± 33.58", "unit": "µg/mL"}, {"measurement": "Day 4 concentration in solution", "setting": "pH = 7", "value": "190.05 ± 24.38", "unit": "µg/mL"}, {"measurement": "Day 4 concentration in solution", "setting": "[5]", "value": "152.03 ± 5.79", "unit": "µg/mL"}, {"measurement": "Day 4 concentration in solution", "setting": "pH = 8", "value": "174.09 ± 59.87", "unit": "µg/mL"}, {"measurement": "Day 5 concentration in solution", "setting": "[1]", "value": "146.60 ± 10.68", "unit": "µg/mL"}, {"measurement": "Day 5 concentration in solution", "setting": "Water", "value": "131.77 ± 33.91", "unit": "µg/mL"}, {"measurement": "Day 5 concentration in solution", "setting": "[2]", "value": "97.81 ± 29.67", "unit": "µg/mL"}, {"measurement": "Day 5 concentration in solution", "setting": "pH = 3", "value": "83.72 ± 35.56", "unit": "µg/mL"}, {"measurement": "Day 5 concentration in solution", "setting": "[3]", "value": "113.89 ± 31.15", "unit": "µg/mL"}, {"measurement": "Day 5 concentration in solution", "setting": "pH = 4", "value": "164.84 ± 35.61", "unit": "µg/mL"}, {"measurement": "Day 5 concentration in solution", "setting": "[4]", "value": "110.66 ± 48.12", "unit": "µg/mL"}, {"measurement": "Day 5 concentration in solution", "setting": "pH = 7", "value": "186.93 ± 5.65", "unit": "µg/mL"}, {"measurement": "Day 5 concentration in solution", "setting": "[5]", "value": "92.06 ± 15.47", "unit": "µg/mL"}, {"measurement": "Day 5 concentration in solution", "setting": "pH = 8", "value": "162.75 ± 31.35", "unit": "µg/mL"}, {"measurement": "Day 6 concentration in solution", "setting": "[1]", "value": "200.20 ± 37.42", "unit": "µg/mL"}, {"measurement": "Day 6 concentration in solution", "setting": "Water", "value": "148.36 ± 33.57", "unit": "µg/mL"}, {"measurement": "Day 6 concentration in solution", "setting": "[2]", "value": "190.69 ± 36.71", "unit": "µg/mL"}, {"measurement": "Day 6 concentration in solution", "setting": "pH = 3", "value": "175.06 ± 31.37", "unit": "µg/mL"}, {"measurement": "Day 6 concentration in solution", "setting": "[3]", "value": "215.72 ± 16.69", "unit": "µg/mL"}, {"measurement": "Day 6 concentration in solution", "setting": "pH = 4", "value": "231.03 ± 36.34", "unit": "µg/mL"}, {"measurement": "Day 6 concentration in solution", "setting": "[4]", "value": "205.61 ± 26.64", "unit": "µg/mL"}, {"measurement": "Day 6 concentration in solution", "setting": "pH = 7", "value": "267.45 ± 30.83", "unit": "µg/mL"}, {"measurement": "Day 6 concentration in solution", "setting": "[5]", "value": "217.66 ± 11.23", "unit": "µg/mL"}, {"measurement": "Day 6 concentration in solution", "setting": "pH = 8", "value": "218.64 ± 22.05", "unit": "µg/mL"}, {"measurement": "Day 7 concentration in solution", "setting": "[1]", "value": "167.42 ± 22.79", "unit": "µg/mL"}, {"measurement": "Day 7 concentration in solution", "setting": "Water", "value": "185.62 ± 22.87", "unit": "µg/mL"}, {"measurement": "Day 7 concentration in solution", "setting": "[2]", "value": "147.21 ± 8.07", "unit": "µg/mL"}, {"measurement": "Day 7 concentration in solution", "setting": "pH = 3", "value": "195.77 ± 15.07", "unit": "µg/mL"}, {"measurement": "Day 7 concentration in solution", "setting": "[3]", "value": "166.23 ± 17.10", "unit": "µg/mL"}, {"measurement": "Day 7 concentration in solution", "setting": "pH = 4", "value": "201.23 ± 6.99", "unit": "µg/mL"}, {"measurement": "Day 7 concentration in solution", "setting": "[4]", "value": "157.89 ± 17.21", "unit": "µg/mL"}, {"measurement": "Day 7 concentration in solution", "setting": "pH = 7", "value": "187.10 ± 28.07", "unit": "µg/mL"}, {"measurement": "Day 7 concentration in solution", "setting": "[5]", "value": "181.7 ± 29.53", "unit": "µg/mL"}, {"measurement": "Day 7 concentration in solution", "setting": "pH = 8", "value": "193.61 ± 21.84", "unit": "µg/mL"}, {"measurement": "change of level in solution over the incubation", "setting": "all treatments, after day 7, room temperature", "value": "not found to decrease in any sample after day 7"}]}]}
